In US4086349A, “Quinolopyran-4-one-2-carboxylic acid derivatives and salts thereof as novel compounds and as medicines for treatment of allergic asthma” (Mitsubishi Yuka Pharmaceutical Co., Ltd., priority 1975, dated 1978):

Key:
[1] = tested on: passive cutaneous anaphylaxis; assay: Passive cutaneous anaphylaxis tests (PCA) on rats; type: in vivo, SLC-strain Wistar rat; details: intravenous, rat PCA; for inhibition in vivo at 0.3 mg/kg / inhibition in vivo at 3 mg/kg: read-out: Inhibition rate
Description: To test the effectiveness of compounds of this invention for treatment of allergic asthma, evaluation of antiallergy effect was carried out by passive cutaneous anaphylaxis tests (PCA) on rats.
Rats (SLC-strain Wistar rat) were immunized with egg albumin which had been recrystallized five times and Bodetella pertussis vaccine, and, after 13 days, serum was taken from these rats.
This serum was diluted to 1/128 and intradermally injected into the back of rats. 48 hours thereafter, the compounds of the invention as set forth in the following table in the form of salts thereof with tris (hydroxymethyl)methyl ammonium dissolved in saline in the indicated quantities as the salts were administered intravenously, and 5 minutes thereafter, saline in which egg albumin and Evans Blue were dissolved was challenged intravenously. After 30 minutes, the animals were killed and the skins were removed and the quantity of the Evans Blue which has leaked as a result of the antigen antibody reaction was extracted through the use of Na2 SO4 solution and acetone, colorimetry being carried out at 620 mμ.

allergic asthma = assay: Classification in view of activity on treatment of allergic asthma; type: in vivo; details: first group most preferable, second more preferable, third preferable
[2] = 50% lethal dose (LD50), i.v., mouse; details: in vivo, iv
[3] = dose 0.3 mg/kg (quantity as the tris (hydroxymethyl) methyl ammonium salt)
[4] = dose 3 mg/kg (quantity as the tris (hydroxymethyl) methyl ammonium salt)

Row | SMILES | inhibition in vivo at 0.3 mg/kg [1, 3] | inhibition in vivo at 3 mg/kg [1, 4] | preference group in view of activity on treatment of allergic asthma (allergic asthma) | also measured
1 | Cc1ccc2c(nc(O)c3c(=O)cc(C(=O)O)oc32)c1C [Compound 1, 7,8-dimethyl-5-hydroxy-quinolo [4,3-b]-pyran-4-one-2-carboxylic acid] | 98% | 100% | most preferable | LD50 [2]: 560 mg/kg; selectivity ratio [2]: 20000
2 | O=C(O)c1cc(=O)c2c(O)nc3ccc(Br)cc3c2o1 [Compound 13, 9-bromo-5-hydroxy-quinolo[4,3-b]-pyran-4-one-2-carboxylic acid] | – | 90% | – | –
3 | CCc1ccc2nc(O)c3c(=O)cc(C(=O)O)oc3c2c1 [Compound 17, 9-ethyl-5-hydroxy-quinolo[4,3-b]-pyran-4-one-2-carboxylic acid] | – | 90% | – | –
4 | O=C(O)c1cc(=O)c2c(O)nc3ccc(Cl)cc3c2o1 [Compound 7, 9-chloro-5-hydroxy-quinolo[4,3-b]-pyran-4-one-2-carboxylic acid] | 67% | 100% | most preferable | –
5 | Cc1cc(C)c2nc(O)c3c(=O)cc(C(=O)O)oc3c2c1 [Compound 12, 7,9-dimethyl-5-hydroxy-quinolo[4,3-b]-pyran-4-one-2-carboxylic acid] | – | 90% | – | –
6 | Cc1ccc2nc(O)c3c(=O)cc(C(=O)O)oc3c2c1 [Compound 2, 9-methyl-5-hydroxy-quinolo [4,3-b]-pyran-4-one-2-carboxylic acid] | 63% | 100% | most preferable | –
7 | COc1ccc2c(c1)nc(O)c1c(=O)cc(C(=O)O)oc12 [Compound 15, 8-methoxy-5-hydroxy-quinolo[4,3-b]-pyran-4-one-2-carboxylic acid] | – | 90% | – | –
8 | COc1ccc2nc(O)c3c(=O)cc(C(=O)O)oc3c2c1 [Compound 4, 9-methoxy-5-hydroxy-quinolo[4,3-b]-pyran-4-one-2-carboxylic acid] | 38% | 98% | – | –
9 | O=C(O)c1cc(=O)c2c(O)nc3ccc(-c4ccccc4)cc3c2o1 [Compound 10, 9-phenyl-5-hydroxy-quinolo[4,3-b]-pyran-4-one-2-carboxylic acid] | – | 90% | preferable | –
10 | CCOC(=O)c1ccc2nc(O)c3c(=O)cc(C(=O)O)oc3c2c1 [Compound 9, 9-ethoxycarbonyl-5-hydroxy-quinolo[4,3-b]-pyran-4-one-2-carboxylic acid] | 39% | 100% | more preferable | –
11 | Cc1cccc2c1nc(O)c1c(=O)cc(C(=O)O)oc12 [Compound 3, 7-methyl-5-hydroxy-quinolo [4,3-b]-pyran-4-one-2-carboxylic acid] | 27% | 100% | – | –
12 | COc1cc2nc(O)c3c(=O)cc(C(=O)O)oc3c2cc1OC [Compound 16, 8,9-dimethoxy-5-hydroxy-quinolo[4,3-b]-pyran-4-one-2-carboxylic acid] | – | 90% | – | –
13 | COc1cccc2c1nc(O)c1c(=O)cc(C(=O)O)oc12 [Compound 5, 7-methoxy-5-hydroxy-quinolo[4,3-b]-pyran-4-one-2-carboxylic acid] | 37% | 98% | – | –
14 | O=C(O)c1cc(=O)c2c(O)nc3ccc(OCc4ccccc4)cc3c2o1 [Compound 8, 9-benzyloxy-5-hydroxy-quinolo[4,3-b]-pyran-4-one-2-carboxylic acid] | 34% | 96% | more preferable | –
15 | CCCCc1ccc2nc(O)c3c(=O)cc(C(=O)O)oc3c2c1 [Compound 6, 9-n-butyl-5-hydroxy-quinolo[4,3-b]-pyran-4-one-2-carboxylic acid] | 26% | 94% | – | –
16 | Cc1c(Cl)ccc2c1nc(O)c1c(=O)cc(C(=O)O)oc12 [Compound 11, 7-methyl-8-chloro-5-hydroxy-quinolo[4,3-b]-pyran-4-one-2-carboxylic acid] | – | – | more preferable | Inhibition rate [1, 3]: 26%; Inhibition rate [1, 4]: 87%
17 | O=C(O)c1cc(=O)c2c(O)nc3ccc(F)cc3c2o1 [Compound 14, 9-fluoro-5-hydroxy-quinolo[4,3-b]-pyran-4-one-2-carboxylic acid] | – | 90% | – | –
